# Legend:
# [1] = tested on: influenza virus A/WS/33; test: microbe, parasite or virus in culture; type: cell-based
# [2] = tested on: MDCK cells; test: Toxic effects in MDCK cells
# [3] = tested on: C3HA murine fibroblasts; test: TNF-α-induced apoptosis, Rhodamine 123 fluorescence; conditions: M4N 50 μM, TNF-α 20 ng/ml + cycloheximide 10 μg/ml, 6 hours
# Method: C3HA murine fibroblasts were incubated with human recombinant TNF-α (20 ng/ml), cycloheximide (CHI) (10 μg/ml), or both, in the absence/presence of NDGA (25 μM) or M4N (50 μM). All compounds were added simultaneously and treatments were for 6 hours. Rhodamine 123 was added during the last half hour and fluorescence measured using a BMG POLARstar galaxy flourimeter.
# More specifically, C3HA cells were cultured in Dulbecco's modified Eagles medium supplemented with 10% fetal bovine serum and maintained at 37° C. in 8% carbon dioxide. […] For apoptosis assays, cells were harvested by trypsinization, centrifuged, counted and 1.5×10^4 cells added to each well of a flat bottom 96 well microtiter plate in culture media. Cells were allowed to adhere at least six (6) hours prior to the addition to TNF (20 ng/ml), CHI (10 μg/milliliter), or both, in the absence/presence of nordihydroguaiaretic acid (25 μM) or M4N (50 μM). […] Both were dissolved in culture media. […] Rhodamine 123 is sequestered by energized mitochondria and live healthy cells display strong mitochondrial fluorescence. […] Fluorescence intensity was then determined using a BMG POLARstar galaxy microplate reader with excitation and emission wavelengths set at 492 and 538 nanometers, respectively. All points were performed in triplicate and percentage cell death was calculated from the following formula: […]
smiles,measurement,setting,value
"COc1ccc(C[C@@H](C)[C@@H](C)Cc2ccc(OC)c(OC)c2)cc1OC [M4N, meso-1,4-bis(3,4-dimethoxyphenyl)-2,3-dimethylbutane]",inhibitory effect on virus titer (log plot),"[1]; EM-1421 25 μM, MDCK cells",less than 1 log unit
same,inhibition at 25 µM,"[1]; MDCK, 0.5 h, read-out: inhibition of A/WS/33 replication in MDCK cells",~75%
same,highest concentration that could be used without causing toxic effects,[2],25 µM
same,inhibition of TNF-α-induced apoptosis,[3],strongly inhibits
